One assay has as its system rat. The assay can be described thus: Test 2: antihypertensive activity in the rat (MABP and heart rate). In kind it is in vivo. Particulars: for antihypertensive activity (comparison in words): Verapamil 50 mg/kg versus 1-methylethyl substituted thio compound 100 mg/kg; for heart rate (HR) / mean arterial blood pressure (MABP): average two rats. How it is done: Antihypertensive activity was measured in the rat by the mean arterial blood pressure (MABP) in millimeters of mercury and heart rate (HR) in beats per minute (average two rats).

The test system of another assay is renal hypertensive dogs. The assay can be described thus: Test 3: antihypertensive activity in renal hypertensive dogs. In kind it is in vivo, dog. How it is done: Antihypertensive activity was also measured in renal hypertensive dogs.
Assay [1] deals with thoracic aortae rings (potassium chloride-induced contraction). The assay can be described thus: Calcium antagonist Test 1: inhibition of potassium chloride-induced contraction of rat thoracic aortic rings. In kind it is cell-based, Sprague-Dawley rat. The conditions noted are these: 50 mM potassium chloride, 37° C., active if >50% inhibition at 3×10^-5 M, read-out: bath concentration at which more than 50% of the potassium chloride-induced contraction was inhibited. How it is done:
Male Sprague-Dawley rats, weighing 300-470 g, were killed and their thoracic aortae were removed immediately, cleared of blood, fat and connective tissue and cut into rings 1-2 mm wide. […] The bath media was maintained at 37° C. and aerated with 5% carbon dioxide in oxygen.
At the start of the test, the aortic rings were stretched to an initial tension of one gram. The tissues were then allowed to equilibrate for 90 minutes until they reached a steady tension. Changes in tension were recorded using a force displacement transducer coupled to a Grass polygraph.
The potassium chloride-induced contractions were repeated until a constant tension was obtained. These initial contractions served as a control for subsequent contractions induced in the presence of a test compound.
Each compound was dissolved in ethanol to a stock concentration of 10^-2 M. The ability of these compounds to inhibit a potassium chloride-induced contraction was determined by comparing the tension developed in the presence of each compound versus the control.

The results in this text go back to US4833162A, “Substituted benzeneacetonitriles and their use as calcium channel blockers” (American Cyanamid Company, priority 1988, dated 1989).

pIC50: −log10 of the molar value. Where a name gives a salt, the structure may show the parent alone.

For the compound `COc1ccc(CCN(C)CCSC(C#N)(c2ccc(OC)c(OC)c2)C(C)C)cc1OC` (stereo not drawn) [1-methylethyl substituted thio compound, A-[[2-[[2-(3,4dimethoxyphenyl)ethyl]methylamino]ethyl]thio]-3,4-dimethoxy-A-(1-methylethyl) benzeneacetonitrile monohydrochloride], the “antihypertensive activity (comparison in words)” value in the assay with rat is given as “comparable antihypertensive activity”. Moreover, in the assay with rat (dose of 100 mg/kg), the “heart rate (HR)” value is given as 320 beats per minute and the “mean arterial blood pressure (MABP)” value is recorded as 97 millimeters of mercury. For the same compound, the “increase in HR to” value in the assay on renal hypertensive dogs (dose of 20 mg/kg) was “above 153”. In addition, the “drop in blood pressure” value with renal hypertensive dogs (dose of 20 mg/kg, over a two hour period) was found to be 45 millimeter. In assay [1], the pIC50 was 6.10.
Take `COc1ccc(CCN(C)CCCC(C#N)(c2ccc(OC)c(OC)c2)C(C)C)cc1OC` (stereo not drawn) [Verapamil, A-[3-[[2-(3,4-dimethoxyphenyl)ethyl]methylamino]propyl]-3,4-dimethoxy-A-(1-methylethyl) benzeneacetonitrile, reference compound]: the “antihypertensive activity (comparison in words)” value in the assay with rat is recorded as “comparable antihypertensive activity”. In the assay on rat (dose of 50 mg/kg), the “heart rate (HR)” value is given as 350 beats per minute and the “mean arterial blood pressure (MABP)” value is 93 millimeters of mercury. Moreover, the “increase in HR of” value in the assay with renal hypertensive dogs (dose of 10 mg/kg) came to 75. Also, the “drop in blood pressure” value in the assay with renal hypertensive dogs (dose of 10 mg/kg, over a four hour period) was 30 millimeters of mercury.
Regarding `COc1ccc(CCN(C)CCSC(C#N)c2ccc(OC)c(OC)c2)cc1OC` (stereo not drawn) [unsubstituted thio compound, A-[[2-[[2(3,4-dimethoxyphenyl)ethyl]methylamino]ethyl]thio]-3,4-dimethoxy-A-benzeneacetonitrile monohydrochloride], the pIC50 in assay [1] was 5.52.
